Data taken from the CheMixHub ionic liquid set.

Assay: xn = mol fraction of the nth substance listed
Details: 101 kPa

CCCCCCCCCCCCCCCC[n+]1ccccc1.O=C([O-])C(O)c1ccccc1 + C[C@H](N)C(=O)O + O
electrical conductivity [S/m]
Details | 293.15 K | 298.15 K | 303.15 K | 308.15 K | 313.15 K
x1 = 1.08e-06, x2 = 0 | 0.00061 | 0.00068 | 0.00076 | 0.00083 | 0.0009
x1 = 1.09e-06, x2 = 0.0009002 | 0.0006 | 0.00069 | 0.00077 | 0.00087 | 0.00098
x1 = 1.09e-06, x2 = 0.001799 | 0.00068 | 0.00078 | 0.00088 | 0.001 | 0.0011
x1 = 1.98e-06, x2 = 0 | 0.001 | 0.0012 | 0.0013 | 0.0014 | 0.0016
x1 = 2.17e-06, x2 = 0.0009002 | 0.00107 | 0.00122 | 0.0014 | 0.0015 | 0.0017
x1 = 2.18e-06, x2 = 0.001799 | 0.00104 | 0.0012 | 0.00135 | 0.0015 | 0.0017
x1 = 2.88e-06, x2 = 0 | 0.00147 | 0.0016 | 0.0018 | 0.002 | 0.0022
x1 = 3.26e-06, x2 = 0.0009002 | 0.0015 | 0.0017 | 0.0019 | 0.0021 | 0.0024
x1 = 3.45e-06, x2 = 0.001799 | 0.00147 | 0.00167 | 0.00187 | 0.0021 | 0.0024
x1 = 3.96e-06, x2 = 0 | 0.0019 | 0.0022 | 0.0024 | 0.0026 | 0.0029
x1 = 4.52e-06, x2 = 0.0009002 | 0.00197 | 0.0022 | 0.0025 | 0.0028 | 0.0031
x1 = 4.54e-06, x2 = 0.001799 | 0.0019 | 0.00216 | 0.0024 | 0.0027 | 0.003
x1 = 4.69e-06, x2 = 0 | 0.0023 | 0.0026 | 0.0029 | 0.0031 | 0.0035
x1 = 5.61e-06, x2 = 0.0009002 | 0.00243 | 0.00275 | 0.0031 | 0.0034 | 0.0038
x1 = 5.81e-06, x2 = 0.001799 | 0.00234 | 0.00265 | 0.0029 | 0.0033 | 0.0036
x1 = 5.95e-06, x2 = 0 | 0.00281 | 0.0032 | 0.0035 | 0.0038 | 0.0042
x1 = 6.87e-06, x2 = 0.0009002 | 0.00295 | 0.0033 | 0.0037 | 0.0041 | 0.0045
x1 = 7.21e-06, x2 = 0 | 0.00341 | 0.0038 | 0.0042 | 0.0046 | 0.0051
x1 = 7.26e-06, x2 = 0.001799 | 0.00287 | 0.00323 | 0.0036 | 0.004 | 0.0044
x1 = 8.32e-06, x2 = 0.0009002 | 0.00346 | 0.00391 | 0.0043 | 0.0048 | 0.0053
x1 = 8.71e-06, x2 = 0.001799 | 0.00335 | 0.00379 | 0.00423 | 0.0047 | 0.0052
x1 = 8.83e-06, x2 = 0 | 0.00406 | 0.0046 | 0.005 | 0.0055 | 0.006
x1 = 9.58e-06, x2 = 0.0009002 | 0.00394 | 0.00445 | 0.00497 | 0.0055 | 0.0061
x1 = 1.045e-05, x2 = 0 | 0.00469 | 0.0053 | 0.0058 | 0.0065 | 0.0071
x1 = 1.071e-05, x2 = 0.001799 | 0.0039 | 0.00441 | 0.00494 | 0.0055 | 0.0061
x1 = 1.121e-05, x2 = 0.0009002 | 0.00434 | 0.00493 | 0.00552 | 0.0062 | 0.0069
x1 = 1.207e-05, x2 = 0 | 0.00516 | 0.0058 | 0.0064 | 0.0071 | 0.0079
x1 = 1.216e-05, x2 = 0.001799 | 0.00419 | 0.00476 | 0.00533 | 0.00596 | 0.0067
x1 = 1.284e-05, x2 = 0.0009002 | 0.00475 | 0.0054 | 0.006 | 0.0067 | 0.0075
x1 = 1.351e-05, x2 = 0 | 0.00562 | 0.00631 | 0.007 | 0.0077 | 0.0085
x1 = 1.361e-05, x2 = 0.001799 | 0.00459 | 0.0052 | 0.00583 | 0.00654 | 0.0073
x1 = 1.411e-05, x2 = 0.0009002 | 0.00513 | 0.0058 | 0.00649 | 0.0072 | 0.0081
x1 = 1.478e-05, x2 = 0 | 0.00603 | 0.0068 | 0.0075 | 0.0083 | 0.0092
x1 = 1.506e-05, x2 = 0.001799 | 0.00495 | 0.00559 | 0.00626 | 0.007 | 0.0079
x1 = 1.519e-05, x2 = 0.0009002 | 0.00545 | 0.00616 | 0.0069 | 0.0077 | 0.0085
x1 = 1.622e-05, x2 = 0 | 0.00644 | 0.0072 | 0.008 | 0.0089 | 0.0098
x1 = 1.646e-05, x2 = 0.0009002 | 0.00578 | 0.00652 | 0.0073 | 0.0081 | 0.009
x1 = 1.651e-05, x2 = 0.001799 | 0.00526 | 0.00598 | 0.00669 | 0.0075 | 0.0083
x1 = 1.766e-05, x2 = 0 | 0.00687 | 0.0077 | 0.0085 | 0.0094 | 0.0104
x1 = 1.778e-05, x2 = 0.001799 | 0.00557 | 0.00629 | 0.00707 | 0.0079 | 0.0088
